Data taken from the NIST ThermoML archive (doi:10.1021/je050544m).
Numbers after ± are expanded uncertainties.

Test: activity coefficient (dimensionless); of the first substance listed, at infinite dilution; xn = mol fraction of the nth substance listed
Conditions: 101 kPa, Liquid, Chromatography, x1 = 0

Row | SMILES | activity coefficient (323 K) | activity coefficient (343 K)
1 | ClC(Cl)(Cl)Cl [tetrachloromethane] + CCCCCCn1cc[n+](C)c1.F[B-](F)(F)F | 3.3 ± 0.35 | 3.61 ± 0.38
2 | ClC(Cl)(Cl)Cl [tetrachloromethane] + CCCCn1cc[n+](C)c1.F[B-](F)(F)F | 5.5 ± 0.58 | 5.73 ± 0.6
3 | Cc1ccccc1 [toluene] + CCCCCCCC[n+]1ccn(C)c1.F[B-](F)(F)F | 1.75 ± 0.18 | 1.82 ± 0.19
4 | Cc1ccccc1 [toluene] + CCCCCCn1cc[n+](C)c1.F[B-](F)(F)F |  | 2.61 ± 0.27
5 | Cc1ccccc1 [toluene] + CCCCn1cc[n+](C)c1.F[B-](F)(F)F | 4.14 ± 0.44 | 4.13 ± 0.43
6 | Cc1ccccc1 [toluene] + CCn1cc[n+](C)c1.F[B-](F)(F)F |  | 4.03 ± 0.42
7 | ClC=C(Cl)Cl [trichloroethene] + CCCCCCCC[n+]1ccn(C)c1.F[B-](F)(F)F | 1.67 ± 0.17 | 1.76 ± 0.18
8 | ClC=C(Cl)Cl [trichloroethene] + CCCCCCn1cc[n+](C)c1.F[B-](F)(F)F |  | 2.53 ± 0.27
9 | ClC=C(Cl)Cl [trichloroethene] + CCCCn1cc[n+](C)c1.F[B-](F)(F)F | 3.98 ± 0.42 | 4.32 ± 0.45
10 | ClC=C(Cl)Cl [trichloroethene] + CCn1cc[n+](C)c1.F[B-](F)(F)F | 3.66 ± 0.38 | 3.79 ± 0.4
11 | ClC(Cl)Cl [trichloromethane] + CCCCCCCC[n+]1ccn(C)c1.F[B-](F)(F)F | 0.62 ± 0.07 | 0.7 ± 0.07
12 | ClC(Cl)Cl [trichloromethane] + CCCCCCn1cc[n+](C)c1.F[B-](F)(F)F | 0.81 ± 0.08 | 0.92 ± 0.09
13 | ClC(Cl)Cl [trichloromethane] + CCCCn1cc[n+](C)c1.F[B-](F)(F)F | 1.13 ± 0.12 | 1.29 ± 0.13
14 | ClC(Cl)Cl [trichloromethane] + CCn1cc[n+](C)c1.F[B-](F)(F)F | 0.73 ± 0.08 | 0.84 ± 0.09
